B1: fragment IN: recombinant N-terminal fragment of hornet antigen 5, residue 1-114 (protein)
chain: PIINLSFGEANNYCKIKCSRGIHTLCKFGTSMKPNCGSKLVKVHGVSNDEKNEIVNRHNQFRQKVAKGLETRGNPGPQPPAKNMNVLVWNDELAKIAQTWANQCSFGHDQCRNT
B2: Tpx-N: recombinant fragment of mouse testis protein Tpx, residue 14-106 (protein)
chain: LLRSPLTEGKDPDFTSLLTNQLQVQREIVNKHNELRRSVNPTGSDILKMEWSIQATTNAQKWANKCILEHSSKDDRKINIRCGENLYMSTDPT
B3: Tpx-C: recombinant fragment of mouse testis protein Tpx, residue 101-163 (protein)
chain: MSTDPTLWSTVIQSWYNENEDFVYGVGAKPNSAVGHYTQLVWYSSFKIGCGIAYCPNQDNLKY

Columns and labels:
Type in all cases: cell-based
[1] = system: Tpx-C primed spleen cells from BALB/c mice; experiment: In vitro proliferation assay, Tpx-C primed spleen cells; settings: BALB/c mice after 4 immunizations with r-fragment Tpx-C (residue 101-163)
Description: FIG. 16. Stimulation index profile of BALB/c mice spleen cells after 4 immunizations with Tpx-C. Stimulation was tested with peptide or protein at three different concentrations: Open bars--1×10^-5 M peptide, 5×10^-6 M Frag C or Tpx-C; "uphill" hatch--1.25×10^-6 M peptide; 6.25×10^-7 M Frag C or Tpx-C; "downhill" hatch--1.56×10^-7 M peptide, 7.8×10^-8 M Frag C, Tpx-C: and stippled--9.75×10^-9 M Frag-C or Tpx-C. The blank was 5110 cpm.
(§1) The peptides of the invention can be tested in a proliferation assay for T cell responses. Generally, lymphocytes from a sensitized host are obtained. The host can be a mouse that has been immunized with a vespid venom antigen 5, or with a crossreactive protein, such as testes specific protein. Using techniques that are well known in the art, T lymphocyte response to the peptide can be measured in vitro. In a specific embodiment, infra, T cell responses are detected by measuring incorporation of ^3 H-thymidine, which increases with DNA synthesis associated with proliferation. Cell proliferation can also be detected using an MTT assay [Mossman, J. Immunol. Methods, 65:55-63,(1983); Niks and Otto, J. Immunol. Methods, 130:140-151 (1990)]. Alternatively, lymphokine production assays can be practiced according to the present invention. In one embodiment, lymphokine production can be assayed using immunological or co-stimulation assays [see, e.g., Fehlner et al., J. Immunol., 146:799 (1991)] or using the ELISPOT technique [Czerkinsky, et al., J. Immunol. Methods, 110:29 (1988)]. Alternatively, mRNA for lymphokines can be detected, e.g., by amplification [see Brenner, et al., Biotechniques, 7:1096 (1989)] or in situ hybridization [see, e.g., Kasaian and Biron, J. Immunol., 142:1287 (1989)]. Of particular interest are those individuals whose T cells produce lymphokines associated with IgE isotype switch events, e.g., IL-4 and IL-5 [Purkeson and Isakson, J. Exp. Med., 175:973-982 (1992)]. Also of interest are the peptide fragments of the vespid venom antigen 5 that contain epitopes recognized by T cells involved in IgE switch events. […]

[2] = system: Ag5 specific spleen cells from BALB/c mice; experiment: In vitro proliferation assay, spleen cells of Ag5-immunized BALB/c mice; settings: for Stimulation Index BALB/c: spleen cells from mice immunized with rAg5, blank 3970 cpm
Description: (§2) FIG. 4. Stimulation index profile of BALB/c mice spleens after 4 immunizations with natural (n)-Ag5. In vitro proliferation assays were performed with peptides at three concentrations: 1×10^-5 M (open bar), 1.25×10^-6 M ("uphill" hatch), and 1.56×10^-7 M ("downhill" hatch). The corresponding concentrations of recombinant antigen 5 control were 1.0×10^-6 M, 1.25×10^-7, and 1.56×10^-8 M. The blank was 2200 cpm.
as §2, with “5.” for “4.”, “recombinant (r)-Ag5.” for “natural (n)-Ag5.”, “Antigen” for “antigen”, “5” for “5 control”, “4700” for “2200”
FIG. 6. […] In vitro proliferation assays were performed with peptides at three concentrations: 1×10^-5 M (open bar), 1.25×10^-6 M ("uphill" hatch), and 1.56×10^-7 M ("downhill" hatch). The corresponding concentrations of recombinant Antigen 5 were 1.0×10^-6 M, 1.25×10^-7, and 1.56×10^-8 M. […]
as §1

[3] = system: r-Ag5 specific spleen cells from ASW/Sn mice; experiment: In vitro proliferation assay, spleen cells of r-Ag5-immunized ASW/Sn mice; settings: spleen cells from mice immunized 5 times with rAg5; blank 5640 cpm
Description: (§3) FIG. 11. Stimulation index profile of ASW/sn mice spleens after 5 immunizations with r-Ag5. In vitro proliferation assays were performed with peptides at three concentrations: 1×10^-5 M (open bar), 1.25×10^-6 M ("uphill" hatch), and 1.56×10^-7 M ("downhill" hatch). The corresponding concentrations of recombinant Antigen 5 were 1.0×10^-6 M, 1.25×10^-7, and 1.56×10^-8 M. The blank was 5640 cpm.
as §1

[4] = system: r-Ag5 specific spleen cells from C57B1/6 mice; experiment: In vitro proliferation assay, spleen cells of r-Ag5-immunized C57B1/6 mice; settings: spleen cells from mice immunized 5 times with rAg5; blank 1050 cpm
Description: as §3, with “14.” for “11.”, “CS7B1/6” for “ASW/sn”, “1.56×10 ^-7” for “1.56×10^-7”, “1050” for “5640”
(§4) The peptides of the invention can be tested in a proliferation assay for T cell responses. Generally, lymphocytes from a sensitized host are obtained. The host can be a mouse that has been immunized with a vespid venom antigen 5, or with a crossreactive protein, such as testes specific protein. Using techniques that are well known in the art, T lymphocyte response to the peptide can be measured in vitro. In a specific embodiment, infra, T cell responses are detected by measuring incorporation of ^3 H-thymidine, which increases with DNA synthesis associated with proliferation. Cell proliferation can also be detected using an MTT assay [Mossman, J. Immunol. Methods, 65:55-63,(1983); Niks and Otto, J. Immunol. Methods, 130:140-151 (1990)]. […] Alternatively, mRNA for lymphokines can be detected, e.g., by amplification [see Brenner, et al., Biotechniques, 7:1096 (1989)] or in situ hybridization [see, e.g., Kasaian and Biron, J. Immunol., 142:1287 (1989)]. […]

[5] = system: r-Ag5 specific spleen cells from mice of different strains; experiment: Summary of proliferation indices across mouse strains; settings: four strains BALB/c, ASW/Sn, C3H/He, P/J, C57B1/6 excluded
Text: Summary of proliferation indices of r-Ag5 specific spleen
cells from mice of different strains on stimulation with the
dominant T cell epitope peptides^1
^1 Dominant T cell epitopes are defined as those peptides which showe
stimulation indices of ≥4 in at least one of 5 strains of mice
The present Example defines indices of 4 or greater for proliferation of Ag5- specific cells as containing a T cell epitope of Ag5. With this definition, the data in FIGS. 3-13 for mice of 5 strains with different haplotypes would indicate that the T cell epitopes of Ag5 are distributed throughout the entire molecule. As C57B1/6 mice is a poor responder, its data are excluded in the following comparison.
The data in Table 4 indicate that 14 peptides contain T cell epitopes of Ag5. Three of these peptides are recognized by three of the four strains tested, five of them by two strains and the remaining six by only one strain. […] They are peptides 1, 2, 5, 6, 9, 15, 20 and 18. […] This is particularly apparent for peptides 6, 20, and 18.

[6] = system: r-Ag5 specific spleen cells from C3H/He mice; experiment: In vitro proliferation assay, spleen cells of r-Ag5-immunized C3H/He mice; settings: spleen cells from mice immunized 5 times with rAg5; blank 3130 cpm
Description: as §3, with “13.” for “11.”, “C3H/He” for “ASW/sn”, “3130” for “5640”
as §4

[7] = system: Tpx-N primed spleen cells from BALB/c mice; experiment: In vitro proliferation assay, Tpx-N primed spleen cells; settings: BALB/c mice after 4 immunizations with r-fragment Tpx-N (residue 14-106)
Description: FIG. 15. Stimulation index profile of BALB/c mice spleen cells after 4 immunizations with Tpx-N. Stimulation was tested with peptide or protein at three different concentrations: Open bars--1.0×10^-5 M peptide or Frag IN, 2.5×10^-6 M Tp X-N; "uphill" hatch--1.25×10^-6 M peptide or Frag IN. 3.13×10^-7 M, Tpx-N; "downhill" hatch--1.5×10^-7 M peptide and Frag IN, 3.91×10^-8 M Tpx-N; and stippled --1.96×10^-8 M Frag IN, 4.89×10^-9 M Tpx-N. The blank was 7270 cpm.
as §1, with “(1992)].” for “(1992)]. Also of interest are the peptide fragments of the vespid venom antigen 5 that contain epitopes recognized by T cells involved in IgE switch events.”

Row | Molecule | stimulation indices, Tpx-C primed spleen cells (FIG. 16) [1] | Stimulation Index BALB/c [2] | Stimulation Index ASW/Sn [3] | Stimulation Index C57B1/6 [4] | recognition by more than one mouse strain (stimulation indices of ≥4) [5] | stimulation indices, Tpx-N primed spleen cells (FIG. 15) [7] | other results
1 | fragment C: recombinant C-terminal fragment of hornet antigen 5, residue 151-204 (NPKKGTMGDNNFSKVGHYTQMVWGKTKEIGCGSVKYIENNWHTHYLVCNYGPAG) | 9 | – | – | – | – | – | stimulation indices, Tpx-C primed spleen cells (FIG. 16) ([1]; listed as r-fragment C): responded equally well
2 | GIHTLCKFGTSMKPNCGRNV [Peptide 2, white face hornet antigen 5 form 2, residue 11-30] | – | 2.9 | 2.2 | 1.9 | recognized by two or three strains of mice | – | recognition by more than one mouse strain (stimulation indices of ≥4) ([5]; listed as SEQ ID NO:9): dominant in more than one strain of mouse
3 | NNYCKIKCRKGIHTLCKFGT [Peptide 1, white face hornet antigen 5 form 2, residue 1-20] | – | 8.6 | 1.9 | 2.5 | recognized by two or three strains of mice | – | stimulation indices (FIG. 4-6 together) ([2]; BALB/c mice immunized 4 times with n-Ag5 or with r-Ag5): ≥ 4; Stimulation Index C3H/He [6]: 2.4; recognition by more than one mouse strain (stimulation indices of ≥4) ([5]; listed as SEQ ID NO:8): dominant in more than one strain of mouse
4 | B1 | – | – | – | – | – | greater than 6 | stimulation indices, Tpx-N primed spleen cells (FIG. 15) ([7]; listed as r-fragment IN): responded equally well
5 | B2 | – | – | – | – | – | greater than 6 | –
6 | B3 | greater than 15 | – | – | – | – | – | –

From US6106844A, “Immunomodulatory peptides of vespid antigen 5” (The Rockfeller University, priority 1998, dated 2000)
